Laboratory results from article PMC11249646, “Small-Molecule Disruptors of the Interaction between Calcium- and Integrin-Binding Protein 1 and Integrin αIIbβ3 as Novel Antiplatelet Agents” (ACS Pharmacology & Translational Science, 2024).
Where two headings read alike, the source gives them in different places.

How the values were obtained:
[1] = target: T1, GST-CIB1 : F-scrambled peptide (Homo sapiens, UniProt Q99828); assay: FP scrambled-peptide counter screen, 1536-well format; type: binding; conditions: for Confirm? (counterscreen): YES/NO; for Curve Class (counterscreen) / COUNTERSCREEN Curve Class: qHTS curve class; for IC50: read-out: IC50 [μM] (counterscreen)
T1 construct: made in house; host or cells: BL-21 plus RIL cells (E. coli)
T1 sequence (Q99828 1-191): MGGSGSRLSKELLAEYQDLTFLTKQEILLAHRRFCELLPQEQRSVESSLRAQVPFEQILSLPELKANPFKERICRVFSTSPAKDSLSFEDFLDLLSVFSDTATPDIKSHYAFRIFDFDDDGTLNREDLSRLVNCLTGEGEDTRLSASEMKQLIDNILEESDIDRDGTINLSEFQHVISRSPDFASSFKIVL

[2] = target: T2, CIB1 and αIIb interaction (CIB1-GST : F-αIIb peptide) (Homo sapiens, UniProt Q99828); assay: FP assay, 1536-well qHTS format (primary and confirmatory screen); type: binding; conditions: for Curve Class (confirmatory screen) / CONFIRMATORY SCREEN Curve Class: qHTS curve class
T2 construct: made in house; host or cells: BL-21 plus RIL cells (E. coli)
T2 sequence (Q99828 1-191): T1 sequence (Q99828 1-191)

[3] = counterscreen, negative sign = inhibitory curve
[4] = confirmatory screen, negative sign = inhibitory curve
[5] = confirmatory screen, read-out: IC50 [μM] (confirmatory screen)
[6] = qHTS primary screen hits, Table S2, negative = inhibition
[7] = qHTS primary screen hits, Table S2, negative sign = inhibitory curve, several classes where COUNT > 1
[8] = qHTS primary screen hits, Table S2, read-out: IC50
[9] = Table S3, counterscreen, negative = inhibition
[10] = Table S3, confirmatory screen, a negative sign marks inhibitory curves
[11] = Table S3, confirmatory screen, negative = inhibition
[12] = Table S3, counterscreen, a negative sign marks inhibitory curves
[13] = Table S3, confirmatory screen, YES/NO call
[14] = Table S3, confirmatory screen, read-out: IC50 [μM] (confirmatory screen)
[15] = qHTS FP screen hits, Table S2, negative = inhibition
[16] = qHTS FP screen hits, Table S2, one class per curve where COUNT > 1, negative sign = inhibitory curve
[17] = qHTS FP screen hits, Table S2, read-out: IC50
[18] = scrambled-peptide counterscreen

Structure (SMILES) | Efficacy (%) (counterscreen) ([1]; counterscreen) | Confirm? (counterscreen) ([1]; counterscreen) | Curve Class (counterscreen) [1, 3] | Efficacy (%) (confirmatory screen) ([2]; confirmatory screen) | Confirm? (confirmatory screen) ([2]; confirmatory screen, YES/NO) | Curve Class (confirmatory screen) [2, 4] | IC50 [2, 5] [µM] | Efficacy (%) [2, 6] [%] | Curve Class [2, 7] | IC50 [2, 8] [µM] | other results
COc1ccc(CC(=O)Nc2ccc(S(=O)(=O)Nc3cc(C)on3)cc2)cc1C.O=C(O)C(F)(F)F [NCGC00244861-01] | -14 | YES | 4 | -69 | YES | -2.4 | 39.8 | -19 | -1.4 | 11.2 | –
Nc1ccc(O)c(C(=O)O)c1 [NCGC00016344-07] | – | – | – | – | – | – | – | -58 | -2.2 | – | Efficacy (%) (counterscreen) [1, 9]: 154%; Curve Class (confirmatory screen) [2, 10]: 4; Efficacy (%) (confirmatory screen) [2, 11]: -27%
O=C(O)C(F)(F)F.O=C(O)c1ccc(-c2ccc3ncnc(N4CCOCC4)c3c2)o1 [NCGC00229619-01] | – | – | – | – | – | – | – | -16 | -1.4 | 4 | Curve Class (counterscreen) [1, 12]: -2.4; Efficacy (%) (counterscreen) [1, 9]: -53%; IC50 ([1]; Table S3, counterscreen): 5.6 µM; Confirm? (confirmatory screen) [2, 13]: YES; Curve Class (confirmatory screen) [2, 10]: -1.4; Efficacy (%) (confirmatory screen) [2, 11]: -29%; IC50 [2, 14]: 10 µM
C=C(CC)C(=O)c1ccc(OCC(=O)O)c(Cl)c1Cl [NCGC00016260-13] | 0 | YES | 4 | -56 | YES | -2.4 | 44.7 | – | – | – | Efficacy (%) [2, 15]: -28%; Curve Class [2, 16]: -1.2; IC50 [2, 17]: 1.3 µM
CSc1cc2c(s1)c1cnn(Cc3cccc(N)c3)c(=O)c1n2C.O=C(O)C(F)(F)F [NCGC00188341-01] | 0 | YES | 4 | -133 | YES | -2.1 | 39.8 | -65 | -1.2 | 20 | –
CCN1CCN(c2ccc(Nc3ccc(-c4ccc(C(N)=O)cc4)n4ncnc34)cc2)CC1.O=C(O)C(F)(F)F [NCGC00249351-01] | -68 | – | -2.2 | -64 | YES | -2.4 | 22.4 | – | – | – | IC50 ([1]; counterscreen): 50.1 µM; Efficacy (%) [2, 15]: -39%; Curve Class [2, 16]: -2.2; IC50 [2, 17]: 35.5 µM
O=C(O)C(F)(F)F.Oc1cccc2c(-c3nnn[nH]3)ccnc12 [NCGC00183786-01] | -23 | YES | 4 | -29 | YES | -1.4 | 25.1 | -27 | -1.2 | 3.5 | –
CNC(=S)N/N=C1\C(=O)Nc2ccccc21.O=C(O)C(F)(F)F [NCGC00229528-01] | – | – | – | – | – | – | – | -26 | -1.4 | 7.9 | COUNTERSCREEN Efficacy (%) [1, 18]: -28%; COUNTERSCREEN Confirm? ([1]; scrambled-peptide counterscreen, YES/NO call): YES; COUNTERSCREEN Curve Class [1, 18]: 4; CONFIRMATORY SCREEN Confirm? ([2]; confirmatory screen, YES/NO call): YES; CONFIRMATORY SCREEN Curve Class [2, 4]: -1.4; CONFIRMATORY SCREEN Efficacy (%) ([2]; confirmatory screen, negative = inhibition): -28%; IC50 ([2]; confirmatory screen, read-out: CONFIRMATORY SCREEN IC50): 14.1 µM
O=C(Cc1ccc(Cl)c(Cl)c1)Nc1ccc(S(=O)(=O)Nc2cnccn2)cc1.O=C(O)C(F)(F)F [NCGC00248365-02] | -24 | YES | 4 | -30 | YES | -1.4 | – | – | – | – | Efficacy (%) [2, 15]: -26%; IC50 [2, 17]: 17.8 µM
O=C(O)C(F)(F)F.O=C1Nc2ccccc2/C1=N/NC(=S)Nc1c(F)cc(F)cc1F [NCGC00229537-01] | – | – | – | – | – | – | – | -30 | -1.4 | 12.6 | COUNTERSCREEN Efficacy (%) ([1]; counterscreen): -11%; COUNTERSCREEN Curve Class ([1]; counterscreen): 4; CONFIRMATORY SCREEN Efficacy (%) ([2]; confirmatory screen): -26%; CONFIRMATORY SCREEN Curve Class ([2]; confirmatory screen): 4
Cc1ccc2nc3sc(C(=O)NCc4ccco4)cc3cc2c1.O=C(O)C(F)(F)F [NCGC00183968-01] | -27 | YES | 4 | -34 | YES | -1.2 | 15.8 | -24 | -1.4 | 7.1 | –
O=C(O)C(F)(F)F.O=C1Nc2ccccc2/C1=N/NC(=S)Nc1ccccc1 [NCGC00229542-01] | -34 | – | -1.2 | -50 | YES | -1.4 | 3.2 | -27 | -1.4 | 10 | IC50 ([1]; counterscreen): 4.5 µM
COc1cccc(C(=O)c2no[n+]([O-])c2C(=O)c2cccc(OC)c2)c1 [NCGC00351157-02] | – | – | – | – | – | – | – | -53 | – | 22.2 | Curve Class (counterscreen) [1, 12]: -1.2; Efficacy (%) (counterscreen) [1, 9]: -60%; IC50 ([1]; Table S3, counterscreen): 17.8 µM; Confirm? (confirmatory screen) [2, 13]: YES; Curve Class (confirmatory screen) [2, 10]: -1.4; Efficacy (%) (confirmatory screen) [2, 11]: -52%; IC50 [2, 14]: 12.6 µM
CCCC(=O)c1cc(O)c(O)cc1O [NCGC00091839-03] | -107 | – | -1.1 | -145 | YES | -1.1 | 35.5 | – | – | – | IC50 ([1]; counterscreen): 31.6 µM; Efficacy (%) [2, 15]: -92%; IC50 [2, 17]: 105 µM
